Structures are written as SMILES.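 These data come from cells grown in 96-well plates and exposed to compound for 48 hours at five concentrations. GI50 marks 50% less growth.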 The source made the active and inactive calls. No stated cut-off is given here; in the data, active = GI50 up to about 1.1 µM and inactive = higher.

Test systems include 786-0; COLO 205; HCT-15; HOP-92; Hs-578T; IGROV-1; K562; KM12; M14; MDA-MB-231; MDA-MB-435; NCI-H23; OVCAR-5; OVCAR-8; SF-268; SF-295; SN12C; UACC-62; CCRF-CEM; UACC-257.
Common to all, as to test: growth of human tumour cells (NCI), 48 h

Take `Cc1cnc2sn(-c3ccc([N+](=O)[O-])cc3)c(=O)c2c1`: the GI50 in the experiment on 786-0 is 56.8 µM (inactive); in the experiment with COLO 205 it was > 100 µM (inactive); in the experiment with HCT-15 it was greater than 100 µM; in the experiment on HOP-92, 33.3 µM (inactive); in the experiment with Hs-578T, 53.5 µM (inactive); with IGROV-1, 57.3 µM (inactive). Besides, the GI50 was > 100 µM (inactive) with K562; > 100 µM (inactive) with KM12; > 100 µM (inactive) with M14; 82.2 µM (inactive) in the experiment on MDA-MB-231; > 100 µM (inactive) with MDA-MB-435; 42.9 µM (inactive) in the experiment with NCI-H23. Besides, the GI50 was > 100 µM (inactive) with OVCAR-5; 43 µM (inactive) with OVCAR-8; 54.1 µM (inactive) in the experiment with SF-268; 45.3 µM (inactive) in the experiment on SF-295; > 100 µM (inactive) with SN12C; 64.7 µM (inactive) in the experiment with UACC-62.
Take `CSc1c(C#N)c(=O)[nH]c2[nH]nc(C)c12`: the GI50 in the experiment with 786-0 was > 100 µM (inactive); in the experiment on CCRF-CEM, > 100 µM (inactive); in the experiment with COLO 205, > 100 µM (inactive); with HCT-15, greater than 100 µM; with Hs-578T, > 100 µM (inactive); with K562, > 100 µM (inactive). Besides, the GI50 with KM12, in the experiment on M14, in the experiment on MDA-MB-231, with MDA-MB-435, in the experiment on NCI-H23 and in the experiment on OVCAR-5 was > 100 µM (inactive) each time. The GI50 with OVCAR-8, in the experiment on SF-268, with SN12C, in the experiment on UACC-257 and in the experiment on UACC-62 was > 100 µM (inactive) each time.
Consider `O=C(Nc1nc(C23CC4CC(CC(C4)C2)C3)cs1)c1cc2cc(Br)cc(Br)c2oc1=O`, for which the GI50 is 32.9 µM (inactive) in the experiment with 786-0; 27.7 µM (inactive) with CCRF-CEM; > 100 µM (inactive) with COLO 205; greater than 100 µM with HCT-15; 46 µM (inactive) with HOP-92; 27.4 µM (inactive) in the experiment on Hs-578T. The GI50 in the experiment with IGROV-1 is > 100 µM (inactive); with K562 it was 42.5 µM (inactive); in the experiment on KM12, > 100 µM (inactive); with MDA-MB-231, 52.6 µM (inactive); in the experiment on MDA-MB-435, 67.5 µM (inactive); in the experiment on NCI-H23, > 100 µM (inactive). The GI50 in the experiment with OVCAR-5 was > 100 µM (inactive); in the experiment on OVCAR-8 it was 34.4 µM (inactive); in the experiment with SF-268, 37.8 µM (inactive); in the experiment with SF-295 it was 40.6 µM (inactive); in the experiment with SN12C, 31.8 µM (inactive); in the experiment with UACC-257 it was > 100 µM (inactive). Further, in the experiment with UACC-62, the GI50 is > 100 µM (inactive).
With `Cc1c(F)c(N)c2c(=O)cc(-c3ccc(NC(=O)C(N)CCCNC(=N)N)c(F)c3)oc2c1F` (stereo not drawn), the GI50 is 29 µM (inactive) in the experiment with 786-0; > 88.3 µM (inactive) with CCRF-CEM; 23.8 µM (inactive) with COLO 205; 19.7 µM with HCT-15; 49.5 µM (inactive) in the experiment with HOP-92; 28.5 µM (inactive) with Hs-578T. Also, the GI50 with IGROV-1 was 0.0759 µM (active); in the experiment with KM12 it was 27 µM (inactive); with M14, 31.7 µM (inactive); in the experiment on MDA-MB-231, 22.5 µM (inactive); in the experiment on MDA-MB-435, 27.2 µM (inactive); with NCI-H23, 27.9 µM (inactive). Also, the GI50 was 0.299 µM (active) in the experiment on OVCAR-5; 32.1 µM (inactive) in the experiment with OVCAR-8; 32.7 µM (inactive) in the experiment with SF-268; > 37.6 µM (inactive) in the experiment with SF-295; 17.1 µM (inactive) in the experiment on SN12C; 0.262 µM (active) in the experiment with UACC-257.
For the compound `C/N=c1/oc2ccccc2cc1C(N)=O`, the GI50 with 786-0 is > 100 µM (inactive); in the experiment with CCRF-CEM, > 100 µM (inactive); with COLO 205, > 100 µM (inactive); in the experiment on HCT-15 it was greater than 100 µM; in the experiment on HOP-92 it was > 100 µM (inactive); in the experiment on Hs-578T it was 16.9 µM (inactive). Moreover, the GI50 in the experiment with IGROV-1 was 53.3 µM (inactive); with K562 it was > 100 µM (inactive); in the experiment on KM12, > 100 µM (inactive); with M14, > 100 µM (inactive); in the experiment on MDA-MB-231, > 100 µM (inactive); in the experiment with MDA-MB-435, > 100 µM (inactive). Besides, the GI50 in the experiment with NCI-H23, with OVCAR-8, in the experiment with SF-268, with SF-295, in the experiment on SN12C and in the experiment with UACC-257 was > 100 µM (inactive) in each case. Besides, the GI50 with UACC-62 was 64.1 µM (inactive).
With `Nc1ccc2nc(N)n[n+]([O-])c2c1`, the GI50 with 786-0 was > 100 µM (inactive); with CCRF-CEM it was > 100 µM (inactive); in the experiment with COLO 205, > 100 µM (inactive); with HCT-15 it was greater than 100 µM; with Hs-578T it was > 100 µM (inactive); in the experiment on IGROV-1, > 100 µM (inactive). Besides, the GI50 in the experiment with K562, in the experiment on KM12, in the experiment on M14, in the experiment with MDA-MB-231, in the experiment with MDA-MB-435 and in the experiment with NCI-H23 was > 100 µM (inactive) throughout. In addition, the GI50 with OVCAR-5 was > 100 µM (inactive); in the experiment on OVCAR-8 it was > 100 µM (inactive); in the experiment on SF-268, > 100 µM (inactive); in the experiment on SF-295 it was 10 µM (inactive); in the experiment with SN12C it was > 100 µM (inactive); in the experiment with UACC-257 it was > 100 µM (inactive). In addition, the GI50 in the experiment with UACC-62 was > 100 µM (inactive).
On to `CCOC(=O)C1C/C(C)=C(/C)SCCCS1` (stereo not drawn), for which the GI50 in the experiment with 786-0 is > 100 µM (inactive); in the experiment with COLO 205, > 100 µM (inactive); in the experiment on HCT-15 it was greater than 100 µM; with HOP-92, > 100 µM (inactive); in the experiment on Hs-578T, > 100 µM (inactive); with IGROV-1, > 100 µM (inactive). Further, the GI50 was 46.1 µM (inactive) in the experiment with K562; > 100 µM (inactive) in the experiment on KM12; > 100 µM (inactive) with M14; > 100 µM (inactive) in the experiment on MDA-MB-231; > 100 µM (inactive) in the experiment with MDA-MB-435; 80 µM (inactive) in the experiment with NCI-H23. Moreover, the GI50 with OVCAR-5, in the experiment with OVCAR-8, with SF-268, with SF-295, in the experiment with SN12C and with UACC-257 was > 100 µM (inactive) in each case. Moreover, in the experiment on UACC-62, the GI50 was > 100 µM (inactive).
In the case of `N#Cc1c(=O)c2ccccc2n2ccccc12`, the GI50 in the experiment with 786-0 was > 100 µM (inactive); with CCRF-CEM it was > 100 µM (inactive); with COLO 205, > 100 µM (inactive); with HCT-15, greater than 100 µM; with HOP-92 it was > 100 µM (inactive); with Hs-578T, > 100 µM (inactive). For the same compound, the GI50 in the experiment with IGROV-1, in the experiment on K562, with KM12, with MDA-MB-231, in the experiment on MDA-MB-435 and in the experiment on NCI-H23 was > 100 µM (inactive) in each case. Also, the GI50 with OVCAR-8, in the experiment on SF-268, in the experiment on SN12C, in the experiment on UACC-257 and in the experiment with UACC-62 was > 100 µM (inactive) throughout.
For `CCNc1nc(N)c(C(=O)c2cccs2)s1`, the GI50 with 786-0 is 26.6 µM (inactive); in the experiment with COLO 205 it was 7.05 µM (inactive); in the experiment with HCT-15, 14.9 µM; in the experiment with HOP-92, 41.2 µM (inactive); in the experiment on Hs-578T, 38.1 µM (inactive); in the experiment with IGROV-1 it was 10.6 µM (inactive). Besides, the GI50 was 25.9 µM (inactive) in the experiment on K562; 11.8 µM (inactive) with KM12; 37.8 µM (inactive) with M14; 50.4 µM (inactive) in the experiment with MDA-MB-231; 20.9 µM (inactive) with MDA-MB-435; 20.9 µM (inactive) in the experiment with NCI-H23. Moreover, the GI50 with OVCAR-5 was 31.3 µM (inactive); in the experiment with OVCAR-8, 24.7 µM (inactive); with SF-268, 32.8 µM (inactive); with SF-295, 34 µM (inactive); in the experiment with SN12C, 30 µM (inactive); with UACC-257 it was 46.9 µM (inactive). In the experiment with UACC-62, the GI50 was 24.2 µM (inactive).
As to `O=C(O)Cn1ccc(=O)c2c([N+](=O)[O-])cccc21`, the GI50 in the experiment on 786-0 is > 100 µM (inactive); in the experiment with CCRF-CEM, > 100 µM (inactive); in the experiment on COLO 205, > 100 µM (inactive); in the experiment with HCT-15, greater than 100 µM; in the experiment with Hs-578T it was > 100 µM (inactive); in the experiment on IGROV-1, > 100 µM (inactive). The GI50 with K562, with KM12, in the experiment on M14, in the experiment with MDA-MB-231, in the experiment with MDA-MB-435 and in the experiment on NCI-H23 was > 100 µM (inactive) in each case. Moreover, the GI50 with OVCAR-5, with OVCAR-8, in the experiment on SF-268, in the experiment on SF-295, in the experiment with SN12C and with UACC-257 was > 100 µM (inactive) throughout. In the experiment on UACC-62, the GI50 was > 100 µM (inactive).
For the compound `O=C1c2ccccc2C(=O)c2c1ccc1c2OCO1`, the GI50 in the experiment with 786-0 is > 100 µM (inactive); in the experiment on CCRF-CEM, > 10 µM (inactive); in the experiment on COLO 205, > 100 µM (inactive); in the experiment with HCT-15, greater than 100 µM; with HOP-92 it was > 100 µM (inactive); with Hs-578T, > 100 µM (inactive). For the same compound, the GI50 with IGROV-1, in the experiment with KM12, in the experiment on M14, with MDA-MB-231, in the experiment with MDA-MB-435 and in the experiment with NCI-H23 was > 100 µM (inactive) throughout. Also, the GI50 in the experiment with OVCAR-5, in the experiment on OVCAR-8, in the experiment with SF-268, in the experiment on SF-295, with SN12C and in the experiment on UACC-257 was > 100 µM (inactive) each time. For the same compound, in the experiment with UACC-62, the GI50 was > 100 µM (inactive).
